These results are taken from PMC12257542, “A Radiolabeled Photoswitchable G Protein-Coupled Receptor Antagonist Enlightens Ligand Binding Kinetics Associated with Photoswitching” (Journal of the American Chemical Society, 2025).

In data set [1] the target is T1, H3R (Homo sapiens, UniProt Q9Y5N1). The settings on record: ref Hauwert et al., cited from earlier work.
On the set-up of data set [2]: method as in Hauwert et al. The settings on record: 25 μM in HBSS buffer containing 1% DMSO; ref Hauwert et al.; cited from earlier work.
On the set-up of data set [3]: method as in Hauwert et al. The settings on record: ref Hauwert et al., cited from earlier work.
On the set-up of data set [4]: method as in Hauwert et al. The settings on record: approximate, extrapolated to 20 °C; ref Hauwert et al.; cited from earlier work.
Data set [5] can be described thus: UV-vis spectra of trans and PSS cis states in HBSS buffer. Format: physicochemical. The settings on record: 25 μM in HBSS buffer containing 1% DMSO. The protocol:
(§1) Experimental procedures – Photochemistry
UV−Vis spectra were recorded using a Thermo-scientific Evolution 201 PC spectrophotometer equipped with a thermostated cell holder set at 20 °C. Fits of UV−vis spectroscopy data were generated using Prism 10.1.0. Illumination for almost all photochemical experiments was executed using a Sutter instruments Lambda LS with a 300 W full-spectrum lamp connected to a Sutter instruments Lambda 10-3 optical filter changer equipped with 360 ± 10 nm, 434 ± 9 nm 494 ± 9 nm, or a Lambda 721 optical beam combiner system equipped with 365 ± 11 nm and 506 ± 14 nm filter. The light intensity used for the lambda 10-3 optical filter is 0.93 mW/mm2 using the 360 ± 20 nm filter, 0.79 mW/mm2 for the 434 ± 9 nm filter, 0.77 mW/mm2 for the 494 ± 9 nm filter as measured using a Thorlabs PM16−401 power meter. The light intensity used for the lambda 721 optical beam combiner is 200 mW using the 365 ± 11 nm filter and 60 mW for the 506 ± 12 nm filter. For photochemical analyses, illuminations were performed in Hellma Suprasil quartz 114QS cuvettes. For the dynamic illuminations, a 4-way cuvette holder (Avantes) was used. The left outlet of the holder is connected to an Avantes AvaLight-DH-S-BAL Deuterium lamp. The right outlet is connected through a fiber to an AvaSpec UV/Vis spectrometer. The lower outlet is connected to a Lambda 721 optical beam combiner system equipped with 365 ± 11 nm and 506 ± 14 nm filter illumination means. The upper outlet is covered with a black cap. The temperature of the solution in the cuvette (20 °C) is controlled by Q-blue Wireless Temperature Control software. […]
The typical distance […]
between light source and vial or cuvette was 2 cm.

Data set [6] in a line: Photostationary state area percentages by LC-MS at the isosbestic point. The data set is classed as physicochemical. The settings on record: for PSScis (area %cis): after illumination of trans isomer with 365 ± 10 nm at 1 mM in DMSO for 10 min.
The nature of data set [7]: Thermal relaxation of PSS cis states (Arrhenius extrapolation). The settings on record: approximate; HBSS buffer + 1% DMSO, extrapolated to 20 °C. Format: physicochemical. The protocol: as §1
UV−Vis spectra were recorded using a Thermo-scientific Evolution 201 PC spectrophotometer equipped with a thermostated cell holder set at 20 °C. Fits of UV−vis spectroscopy data were generated using Prism 10.1.0. Illumination for almost all photochemical experiments was executed using a Sutter instruments Lambda LS with a 300 W full-spectrum lamp connected to a Sutter instruments Lambda 10-3 optical filter changer equipped with 360 ± 10 nm, 434 ± 9 nm 494 ± 9 nm, or a Lambda 721 optical beam combiner system equipped with 365 ± 11 nm and 506 ± 14 nm filter. The light intensity used for the lambda 10-3 optical filter is 0.93 mW/mm2 using the 360 ± 20 nm filter, 0.79 mW/mm2 for the 434 ± 9 nm filter, 0.77 mW/mm2 for the 494 ± 9 nm filter as measured using a Thorlabs PM16−401 power meter. The light intensity used for the lambda 721 optical beam combiner is 200 mW using the 365 ± 11 nm filter and 60 mW for the 506 ± 12 nm filter. For photochemical analyses, illuminations were performed in Hellma Suprasil quartz 114QS cuvettes. For the dynamic illuminations, a 4-way cuvette holder (Avantes) was used. The left outlet of the holder is connected to an Avantes AvaLight-DH-S-BAL Deuterium lamp. The right outlet is connected through a fiber to an AvaSpec UV/Vis spectrometer. The lower outlet is connected to a Lambda 721 optical beam combiner system equipped with 365 ± 11 nm and 506 ± 14 nm filter illumination means. The upper outlet is covered with a black cap. The temperature of the solution in the cuvette (20 °C) is controlled by Q-blue Wireless Temperature Control software.
Thermal relaxation experiments and Arrhenius extrapolations were performed according to Priimagi et al20, using a compound concentration of 25 μM in HBSS +1% DMSO and temperatures of 50, 60, and 70 °C. Illuminations for pharmacological experiments were performed in cylindrical clear glass vials with a volume of 4.5 mL. The typical distance between light source and vial or cuvette was 2 cm.

The target of data set [8] is T1, H3R. Briefly: [3H]NAMH competition radioligand binding on cell homogenates overexpressing H3R. The settings on record: for Fold Ki shift: (high-affinity state)/(low-affinity state); for Ki: [3H]NAMH competition, n = 3.
In data set [9] the target is T1, H3R. The data set is classed as binding. The protocol: (§2) To determine non-specific
(§3) specific binding from the total binding.
(§4) intervals ranging from 0-20 minutes.
(§5) was measured as described above.
(§6) model to obtain Kd values.

The target of data set [10] is T1, H3R. The data set can be described thus: Association and dissociation radioligand binding experiments with [3H]3f. The settings on record: for dissociation t 1/2: t1/2 = ln 2/k off; for Kd: from k off/k on, read-out: pK d(k in) calculated kinetic affinity (converted). The protocol:
as §2, §3, §4, §5, §6

In another data set the target is hH3R (Homo sapiens, UniProt Q9Y5N1). Briefly: Competition binding of non-labeled ligands with trans-[3H]3f on hH3R-expressing cell homogenates.
hH3R, sequence (Q9Y5N1 whole entry): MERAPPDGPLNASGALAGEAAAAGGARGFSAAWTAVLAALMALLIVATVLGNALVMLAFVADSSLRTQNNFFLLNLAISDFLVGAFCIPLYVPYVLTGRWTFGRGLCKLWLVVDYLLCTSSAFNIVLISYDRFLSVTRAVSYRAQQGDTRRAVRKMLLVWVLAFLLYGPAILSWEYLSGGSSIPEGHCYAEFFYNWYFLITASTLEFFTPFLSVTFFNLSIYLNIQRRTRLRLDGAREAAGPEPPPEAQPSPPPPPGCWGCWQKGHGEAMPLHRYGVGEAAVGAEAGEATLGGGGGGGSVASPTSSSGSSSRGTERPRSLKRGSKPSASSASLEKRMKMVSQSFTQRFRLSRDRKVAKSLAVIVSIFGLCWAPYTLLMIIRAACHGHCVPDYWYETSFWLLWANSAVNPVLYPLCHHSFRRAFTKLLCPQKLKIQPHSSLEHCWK
Data set [11] addresses T1, H3R. Briefly: Functional H3R NanoBiT-PKA (cAMP sensor) assay in transiently transfected HEK293T cells. Format: cell-based. The settings on record: inhibition of forskolin-stimulated cAMP signal, agonist alone.
The mark [12] stands for this setting: ↑ higher affinity of PSS cis state than trans.
[13] abbreviates: illumination of PSS cis state with 506 ± 20 nm at 1 mM in DMSO for 10 min.
The mark [14] stands for this setting: ↓ lower affinity of PSS cis state than trans.

SMILES strings stand for the structures. Several values for one entry are separate records, joined by “and”; a condition that tells them apart may be missing. Identical values can stand only once. Like-named read-outs stand apart in the source and are kept apart here.

T1 sequence (Q9Y5N1 whole entry): as above

For `c1ccc(/N=N/c2ccc(OCCCN3CCCCC3)cc2)cc1` [Compound 1], the “pKi PSScis ± SEM” value on H3R [1] (PSS cis state, [3H]NAMH competition) is 8.1 ± 0.1. Also, the “pKi trans ± SEM” value at H3R [1] (trans isomer, [3H]NAMH competition) is 7.3 ± 0.1. Besides, the “Fold Ki shift” value at H3R [1] (setting [12]) is 6.3 ↑ fold. Moreover, in data set [2], the λmax cis is 432 nm and the λmax trans was 344 nm. For the same compound, in data set [3] (after illumination of trans isomer with 365 ± 10 nm), the “PSScis (area %cis)” value is recorded as 97 area %. Further, the “PSStrans (area %trans)” value in data set [3] (illumination of PSS cis state with 434 ± 20 nm) is listed as 68 area %. Also, the “Half-life (thermal relaxation of PSS cis state)” value (“Half-life” for short) in [4] was 264 h.
Broadly, the Ki is a measure of affinity in units of concentration, obtained from inhibition or displacement. The low end stands for a stronger hold on the target, the high end for a looser hold on the target. As to `c1ccc(/N=N/c2ccc(O[C@H]3C[C@H](N4CCCCC4)C3)cc2)cc1` [Compound 2], in [5], the λmax cis is 425 nm and the λmax trans is reported as 350 nm. In addition, the “PSScis (area %cis)” value in data set [6] was found to be 97 area %. Moreover, in data set [6] (illumination of PSS cis state with 434 ± 20 nm at 1 mM in DMSO for 10 min), the “PSStrans (area %trans)” value was 74 area %. The “Half-life” value in data set [7] was 48 h. The “Fold Ki shift” value on H3R [8] (setting [12]) is 4 fold and 4.0 ↑ fold. The compound also showed an inhibition constant Ki at H3R [8] (pKi PSScis ± SEM, PSS cis state) of 2.51 nM.
For the compound `Cc1nn(C)c(C)c1/N=N/c1ccc(O[C@H]2C[C@H](N3CCCCC3)C2)cc1` [Compound 3a], in [5], the λmax cis amounted to 439 nm and the λmax trans is on record as 347 nm. Besides, the “PSScis (area %cis)” value in data set [6] is listed as 95 area %. Further, the “PSStrans (area %trans)” value in [6] (setting [13]) was 93 area %. Besides, in data set [7], the “Half-life” value was 432 h. Besides, the “Fold Ki shift” value on H3R [8] (setting [14]) is listed as 7.9 ↓ fold. Further, the “fold improved Ki value of trans isomer compared to trans-2” value at H3R [8] (trans isomers) is listed as “more than 10 fold”.
Take `Cc1nn(C2CCCCC2)c(C)c1/N=N/c1ccc(O[C@H]2C[C@H](N3CCCCC3)C2)cc1` [Compound 3b]: in data set [5], the λmax cis is 440 nm and the λmax trans came to 351 nm. For the same compound, in [6], the “PSScis (area %cis)” value is reported as 88 area %. Moreover, the “PSStrans (area %trans)” value in [6] (setting [13]) is reported as 94 area %. Also, the “Half-life” value in data set [7] was 170 h. Besides, at H3R [8] (setting [14]), the “Fold Ki shift” value is recorded as 12.6 ↓ fold.
As to `Cc1nn(C2CCOCC2)c(C)c1/N=N/c1ccc(O[C@H]2C[C@H](N3CCCCC3)C2)cc1` [Compound 3c], in [5], the λmax cis amounted to 440 nm and the λmax trans was determined as 349 nm. Moreover, the “PSScis (area %cis)” value in [6] amounted to 94 area %. Besides, the “PSStrans (area %trans)” value in data set [6] (setting [13]) was determined as 95 area %. Also, the “Half-life” value in data set [7] is 600 h. For the same compound, the “Fold Ki shift” value at H3R [8] (setting [14]) was 20.0 ↓ fold.
In data set [5], `Cc1nn(C2CCNCC2)c(C)c1/N=N/c1ccc(O[C@H]2C[C@H](N3CCCCC3)C2)cc1` [Compound 3e] displayed a λmax cis of 434 nm and a λmax trans of 346 nm. Also, the “PSScis (area %cis)” value in data set [6] is recorded as 99 area %. In addition, the “PSStrans (area %trans)” value in data set [6] (setting [13]) is listed as 92 area %. Also, the “Half-life” value in [7] was 696 h. Also, the “Fold Ki shift” value at H3R [8] (setting [14]) is recorded as 25.1 ↓ fold. The same compound showed a Ki at H3R [8] (pKi trans ± SEM, trans isomer) of 0.501 nM.
What is called kon is a measure of how fast the partners come together. Higher therefore signals fast association. What is called koff is a measure of how fast the partners let go of each other. A lower koff goes with a long-lived complex. With `[3H]C([3H])([3H])N1CCC(n2nc(C)c(/N=N/c3ccc(O[C@H]4C[C@H](N5CCCCC5)C4)cc3)c2C)CC1` [[^3H]3f], the “H3R binding remaining after exposure to 365 nm light” value on H3R [9] (prebound trans state 0.5 nM, no competitor present) is reported as “approximately 0%”. Moreover, the “dissociation t 1/2” value is 48 ± 12 s on H3R [9] (prebound trans state, 365 nm light, t1/2 = ln 2/k off); 6.2 ± 0.2 min on H3R [10] (PSS cis state, clobenpropit); 6.2 ± 0.4 min on H3R [10] (PSS cis state, clobenpropit, listed as [^3H]3f-PSS cis); 4.9 ± 0.4 min at H3R [10] (trans state, clobenpropit (10 μM)). In addition, the “fold faster dissociation kinetics upon 365 nm illumination” value on H3R [9] (prebound trans, 365 nm light versus dissociation of dark trans-[3H]3f) is reported as 6.2 fold. The “time at which binding to H3R reaches equilibrium” value on H3R [10] (0.5 nM trans state) is given as 15 min. Besides, the on-rate (kon) was 217000 M⁻¹ s⁻¹ at H3R [10] (PSS cis state (preilluminated trans-[3H]3f)) and 2.15e+06 M⁻¹ s⁻¹ on H3R [10] (trans state, 0.5 nM). The koff was 0.00183 s⁻¹ on H3R [10] (PSS cis state, dissociation initiated with clobenpropit) and 0.0025 s⁻¹ on H3R [10] (trans state, dissociation initiated with 10 μM clobenpropit). Moreover, the Kd was 12.6 nM on H3R [10] (PSS cis state) and 1.26 nM on H3R [10] (trans state). In addition, on H3R [10] (PSS cis versus trans), the “fold lower k on value compared to trans-[3H]3f” value was found to be 10 fold.
Turning to `c1nc(CC2CCNCC2)c[nH]1` [immepip, reference compound], the Ki on hH3R is 3.16 nM.
Usually EC50 stands for the concentration needed to bring the measured effect to its halfway point. Read a high EC50 as weaker potency. Regarding `c1cc(Cc2cnc[nH]2)ccn1` [immethridine, reference compound], it took 0.794 nM to reach a half-maximal effect at H3R [11] (EC50).
